Measured values published in patent publication US3957812A, “Derivatives of 2-phenoxyacetamido-5-nitro-thiazole” (priority 1973, dated 1976).
Converted amounts (≈) assume the structure as drawn.

How the values were obtained:
[1] = tested on: Trichomonas vaginalis; experiment: Test for trichomonacidal activity; assay type: cell-based; details: for minimal effective concentration: Trichomonas vaginalis, read-out: Trichomonas vaginalis starting activity
From the text: (§1) Biological tests have been performed with a great number of compounds of formula (I) using the following techniques: (1) Test for amoebicidal activity described by R. CAVIER, Ann. pharm. franc., 1960, 18, pages 583-589 and by R. CAVIER, and J. CENAC, Bull. Soc. Path. exot. 1972, 65, pages 399-404. (2) Test for trichomonacidal activity described by R. CAVIER and P. BUOT, Ann. pharm. franc., 1964, 22, pages 211-216 and by R. CAVIER and J. CENAC, Semaine des Hopitaux, 1972, 48, pages 391-394). (3) Tests for anthelminthics described for nematodes (such as Syphacia obvelata) by R. CAVIER, Bull. Soc. Path. exot., 1962, 55, pages 412-417 and, for cestodes (such as Hymenolepis nana), by R. CAVIER, Ann. pharm. franc., 1956, 14, pages 545-552 and by R. CAVIER and M. J. NOTTEGHEM, Ann. pharm. franc. 1968, 28, pages 603-606.

[2] = tested on: Syphacia obvelata; assay type: in vivo; design: Percentage of activity: concentration or dose not given beside the values; details: for Percentage of activity: Syphacia obvelata, number of subjects 10; for Number of dead subjects (+): in vivo
From the text: as §1

[3] = tested on: Hymenolepis nana; experiment: Test for anthelminthics, cestodes (Hymenolepis nana); assay type: in vivo; details: number of subjects 10
From the text: as §1

[4] = tested on: Trichophyton mentagrophytes; experiment: Determination of fungistatic doses, T.m.; assay type: cell-based; details: Trichophyton mentagrophytes, 240 h; liquid Sabouraud medium, 25°C, 10 days; read-out: fungistatic dose, T.m
Method: (§2) (4) Method for determining fungistatic doses:
(§3) A liquide Sabouraud medium having the following composition is used:
(§4) If necessary, the pH is adjusted at 6.4 and the medium is sterilized.
(§5) The compounds are dissolved in dimethylformamide to which polyethylene glycol is sometimes added. From the mother-liquor, successive diluted solutions are prepared in the liquid Sabouraud medium, so as to obtain concentrations of 1, 3, 10, 30 100 and […] per ml. For the first dilution, one should not add more than 10% of the mother-liquor to the Sabouraud medium. Subsequently 9 ml per tube of the various solutions in the liquid Sabouraud medium are distributed.
(§6) Reference tubes corresponding to the highest solvent concentrations are also prepared.
(§7) Cultures of the various dermatophyte strains on Sabouraud gelose medium are prepared. From 1 to 2 months old cultures, homogeneous suspensions of said cultures in the liquid Sabouraud medium are prepared, the obtained suspensions being stirred in the presence of glass pearls having a light transmission of about 40%.
(§8) One drop of said suspension is introduced in the tubes containing the various concentrations of the compound to be tested.
(§9) at 25°C ± 2°C in the dark
(§10) 10 days of incubation for dermatophytes.

[5] = tested on: Staphylococcus aureus 209 P; experiment: Determination of bacteriostatic doses, S. 209 P; assay type: cell-based; details: Staphylococcus aureus, 209P; gelose medium, 37°C, 24 hours; read-out: bacteriostatic dose, S. 209 P
Method: (§11) (5) Method for determining bacteriostatic doses
(§12) A common gelose medium of the following composition is used.
(§13) The pH is adjusted at 7.2 and the medium is sterilized during 30 minutes at 120°C.
(§14) The same method as for the determination of fungistatic doses is used, except that the various dilutions of each compound are added to the gelose medium, the solvent concentration never exceeding 3%. Tubes containing […] of the compounds per ml are prepared.
(§15) Cultures of each strain in the liquid medium are prepared and, after 24 hours of incubation at 37°C, dilutions of these cultures in ordinary broth are prepared as follows:
Staphylococcus aureus 209 P
(§16) By means of these dilutions, scratches of a length of 4 to 5 cm are made on the previously dried surface of the gelose medium to which various amounts of the compound to be tested have been added.

[6] = tested on: Epidermo flocosum; experiment: Determination of fungistatic doses, E.f.; assay type: cell-based; details: 240 h; liquid Sabouraud medium, 25°C, 10 days; read-out: fungistatic dose, E.f.
Method: as §2, §3, §4, §5, §6, §7, §8, §9, §10

[7] = tested on: Enterococcus 9790; experiment: Determination of bacteriostatic doses, E. 9790; assay type: cell-based; details: Enterococcus, 9790; gelose medium, 37°C, 24 hours; read-out: bacteriostatic dose, E. 9790
Method: as §11, §12, §13, §14, §15, §16

[8] = tested on: Microsporum audouini; experiment: Determination of fungistatic doses, M.a.; assay type: cell-based; details: 240 h, liquid Sabouraud medium, 25°C, 10 days, read-out: fungistatic dose, M.a.
Method: as §2, §3, §4, §5, §6, §7, §8, §9, §10

[9] = tested on: Trichophyton rubrum; experiment: Determination of fungistatic doses, T.r.; assay type: cell-based; details: 240 h, liquid Sabouraud medium, 25°C, 10 days, read-out: fungistatic dose, T.r.
Method: as §2, §3, §4, §5, §6, §7, §8, §9, §10

[10] = tested on: Shigella dysenteriae 3410; experiment: Determination of bacteriostatic doses, S. 3410; assay type: cell-based; details: Shigella dysenteriae, 3410, 24 h, read-out: bacteriostatic dose, S. 3410
Method: as §11, §12, §13, §14, §15
Shigella dysenteriae 3410
as §16

[11] = tested on: Entomoeba dysenteriae; experiment: Test for amoebicidal activity; assay type: cell-based; details: in words
From the text: as §1

[12] = tested on: bacteria; experiment: Activity against bacteria; assay type: cell-based; details: in words
Method: as §11, §12, §13, §14, §15, §16

[13] = tested on: fungi; experiment: Activity against fungi; assay type: cell-based; details: in words
Method: as §2, §3, §4, §5, §6, §7, §8, §9, §10

SMILES	minimal effective concentration [1]	Percentage of activity [2]	Number of dead subjects (+) [2]	Number of dead subjects (+) [3]	Number of subjects from which the parasite has been eradicated (D) [3]	Percentage of activity [3]	MIC [4]	MIC [5]	MIC [6]	MIC [7]	MIC [8]	MIC [9]	MIC [10]	activity against Trichomonas vaginalis ([1]; in words)	activity against Entomoeba dysenteriae [11]	activity against bacteria [12]	activity against fungi [13]
O=C(COc1ccc(Br)cc1)Nc1ncc([N+](=O)[O-])s1 [PH 6092]	100 µg/mL	10%	0	0	1	10%	100 µg/mL (≈ 279 µM)	10 µg/mL (≈ 27.9 µM)									
O=C(COc1cc(C(F)(F)F)cc(C(F)(F)F)c1)Nc1ncc([N+](=O)[O-])s1 [PH 6167]		40%	0	0	7	70%	1 µg/mL (≈ 2.41 µM)	3 µg/mL (≈ 7.22 µM)	1 µg/mL (≈ 2.41 µM)	10 µg/mL (≈ 24.1 µM)							
O=C(COc1ccc(F)cc1)Nc1ncc([N+](=O)[O-])s1 [PH 6160]		0%	0	0	0	0%	4 µg/mL (≈ 13.5 µM)	10 µg/mL (≈ 33.6 µM)	1 µg/mL (≈ 3.36 µM)		4 µg/mL (≈ 13.5 µM)	4 µg/mL (≈ 13.5 µM)	100 µg/mL (≈ 336 µM)				
Cc1cc(OCC(=O)Nc2ncc([N+](=O)[O-])s2)ccc1Cl [PH 6314]	2.5 µg/mL	0%	0	0	0	0%		3 µg/mL (≈ 9.15 µM)									
Cc1cc(Cl)c(OCC(=O)Nc2ncc([N+](=O)[O-])s2)cc1C [PH 6305]		10%	0	0	0	0%											
O=C(COc1ccccc1)Nc1ncc([N+](=O)[O-])s1 [2-phenoxyacetamido-5-nitro-thiazole]														no activity	no activity	no activity	no activity
